From BindingDB's records for doi:10.1016/j.bmcl.2004.08.038 (Glaxosmithkline, 2004)

Molecular target: T1, Dimer of Gag-Pol polyprotein [501-599,Q508K,L534I,L564I,C568A,C596A] (Human immunodeficiency virus 1, UniProt P03367, C568A/C596A/L534I/L564I/Q508K)
T1 construct: 501-599
Experiment: Protease Inhibition Assay
Details: pH 6.4; 25 °C
Protocol: The Ki values were determined using fluorogenic substrate, 2-(aminobenzoyl)-Thr-Ile-Nle-Phe(p-NO2)-Gln-ArgNH2. A standard curve relating changes in fluorescent intensity to changes in concentration of product was used to convert fluorescent changes into molar velocities. The amount of cleavage was determined by HPLC.

Compared with `O=C(N[C@H]1c2ccccc2C[C@H]1O)[C@H](Cc1ccccc1)C[C@H](O)CN1C(=O)N(Cc2ccccn2)C[C@@H]1Cc1ccccc1` [(2R,4S)-2-benzyl-5-[(5S)-5-benzyl-2-oxo-3-(pyridin-2-ylmethyl)imidazolidin-1-yl]-4-hydroxy-N-[(1S,2R)-2-hydroxy-2,3-dihydro-1H-inden-1-yl]pentanamide], `O=C(N[C@H]1c2ccccc2C[C@H]1O)[C@H](Cc1ccccc1)C[C@H](O)CN1C(=O)N(Cc2cccnc2)C[C@@H]1Cc1ccccc1` [(2R,4S)-2-benzyl-5-[(5S)-5-benzyl-2-oxo-3-(pyridin-3-ylmethyl)imidazolidin-1-yl]-4-hydroxy-N-[(1S,2R)-2-hydroxy-2,3-dihydro-1H-inden-1-yl]pentanamide] is 2.3-fold lower in Ki: 41 nM for the first, 18 nM for the second.

First: O=C(N[C@H]1c2ccccc2C[C@H]1O)[C@H](Cc1ccccc1)C[C@H](O)CN1C(=O)N(Cc2ccncc2)C[C@@H]1Cc1ccccc1 [(2R,4S)-2-benzyl-5-[(5S)-5-benzyl-2-oxo-3-(pyridin-4-ylmethyl)imidazolidin-1-yl]-4-hydroxy-N-[(1S,2R)-2-hydroxy-2,3-dihydro-1H-inden-1-yl]pentanamide]
Second: O=C(N[C@H]1c2ccccc2C[C@H]1O)[C@H](Cc1ccccc1)C[C@H](O)CN1C(=O)N(Cc2cccc(F)c2)C[C@@H]1Cc1ccccc1 [(2R,4S)-2-benzyl-5-[(5S)-5-benzyl-3-[(3-fluorophenyl)methyl]-2-oxoimidazolidin-1-yl]-4-hydroxy-N-[(1S,2R)-2-hydroxy-2,3-dihydro-1H-inden-1-yl]pentanamide]
The Ki of the first is 59-fold higher: 190 nM for the first, 3.2 nM for the second.

First: COc1cc(CN2C[C@H](Cc3ccccc3)N(C[C@@H](O)C[C@@H](Cc3ccccc3)C(=O)N[C@H]3c4ccccc4C[C@H]3O)C2=O)cc(OC)c1OC [(2R,4S)-2-benzyl-5-[(5S)-5-benzyl-2-oxo-3-[(3,4,5-trimethoxyphenyl)methyl]imidazolidin-1-yl]-4-hydroxy-N-[(1S,2R)-2-hydroxy-2,3-dihydro-1H-inden-1-yl]pentanamide]
Second: COc1ccc(CN2C[C@H](Cc3ccccc3)N(C[C@@H](O)C[C@@H](Cc3ccccc3)C(=O)N[C@H]3c4ccccc4C[C@H]3O)C2=O)cc1 [(2R,4S)-2-benzyl-5-[(5S)-5-benzyl-3-[(4-methoxyphenyl)methyl]-2-oxoimidazolidin-1-yl]-4-hydroxy-N-[(1S,2R)-2-hydroxy-2,3-dihydro-1H-inden-1-yl]pentanamide]
The Ki of the first is 18-fold higher: 100 nM for the first, 5.6 nM for the second.

With `CS(=O)(=O)c1ccc(CN2C[C@H](Cc3ccccc3)N(C[C@@H](O)C[C@@H](Cc3ccccc3)C(=O)N[C@H]3c4ccccc4C[C@H]3O)C2=O)cc1` [(2R,4S)-2-benzyl-5-[(5S)-5-benzyl-3-[(4-methanesulfonylphenyl)methyl]-2-oxoimidazolidin-1-yl]-4-hydroxy-N-[(1S,2R)-2-hydroxy-2,3-dihydro-1H-inden-1-yl]pentanamide] the Ki was 300 nM.
